Measurements as given in patent publication US12016858B2, “Methods for the treatment of abnormal involuntary movement disorders” (AUSPEX PHARMACEUTICALS, INC., priority 2015, dated 2024).

How the values were obtained:
[1] = test system: QTc interval; conditions: 50 mg; 90% two-sided CI: 5.0, 10.4 ms; cited from earlier work
[2] = test system: patients with hyperkinetic movement disorders; conditions: retrospective study of 98 patients; cited from earlier work
[3] = test system: patients with HD; conditions: cited from earlier work
[4] = test system: cardiac repolarization (QTcF interval); assay: TQT study, six-period crossover, placebo- and positive-controlled; type: in vivo, healthy volunteers
Description: Study Design. Given the known risk for tetrabenazine to increase the QT interval, a TQT study of deutetrabenazine, which included tetrabenazine as a treatment arm, was conducted in 48 healthy volunteers. This was a single-center, randomized, double-blind, placebo- and positive-controlled six-period crossover study to evaluate the effects of low-dose (12 mg) and high-dose (24 mg) deutetrabenazine on cardiac repolarization, based on placebo-corrected, time-matched changes from baseline in the QTcF interval. Assay sensitivity was established by using moxifloxacin 400 mg as the positive control.
The key outcome measure was to determine the effect of single doses of deutetrabenazine on the QTc interval.
In the table above, ΔΔQTcF is defined as the difference between the least squares mean change from baseline for the active drug and placebo. deutetrabenazine was compared with deutetrabenazine placebo (administered under fed conditions) and tetrabenazine was compared with tetrabenazine placebo (administered under fasted conditions). […] The upper limit of the 95% one-sided confidence interval is the upper limit of the 90% 2-sided confidence interval.

[5] = 12-week placebo-controlled study

## COc1cc2c(cc1OC)C1CC(=O)C(CC(C)C)CN1CC2 (stereo not shown) [tetrabenazine, 1,3,4,6,7,11b-Hexahydro-9,10-dimethoxy-3-(2-methylpropyl)-2H-benzo[a]quinoline]
[1]
  mean increase in QTc interval: approximately 8 ms
[2]
  dysphagia observed in patients: 19%
[3]; [5]
  TMC score of the UHDRS: demonstrated to improve the TMC score
  TMS: failed to show statistically significant improvement in TMS
[3]; 12-week randomized controlled trial
  adverse events suggestive of parkinsonism: 15%
[3]; 28 of 54 patients randomized
  patients in whom dose escalation was discontinued or dosage reduced due to adverse events: 52%
[3]; N = 54
  Adverse reaction Akathisia: 10 (19) n (%)
  Adverse reaction Anxiety/anxiety aggravated: 8 (15) n (%)
  Adverse reaction Appetite decreased: 2 (4) n (%)
  Adverse reaction Balance difficulty: 5 (9) n (%)
  Adverse reaction Bronchitis: 2 (4) n (%)
  Adverse reaction Depression: 10 (19) n (%)
  Adverse reaction Dizziness: 2 (4) n (%)
  Adverse reaction Dysarthria: 2 (4) n (%)
  Adverse reaction Dysuria: 2 (4) n (%)
  Adverse reaction Ecchymosis: 3 (6) n (%)
  Adverse reaction Fall: 8 (15) n (%)
  Adverse reaction Fatigue: 12 (22) n (%)
  Adverse reaction Gait unsteady: 2 (4) n (%)
  Adverse reaction Headache: 2 (4) n (%)
  Adverse reaction Insomnia: 12 (22) n (%)
  Adverse reaction Irritability: 5 (9) n (%)
  Adverse reaction Laceration (head): 3 (6) n (%)
  Adverse reaction Nausea: 7 (13) n (%)
  Adverse reaction Obsessive reaction: 2 (4) n (%)
  Adverse reaction Parkinsonism/bradykinesia: 5 (9) n (%)
  Adverse reaction Sedation/somnolence: 17 (31) n (%)
  Adverse reaction Shortness of breath: 2 (4) n (%)
  Adverse reaction Upper respiratory tract infection: 6 (11) n (%)
  Adverse reaction Vomiting: 3 (6) n (%)
[3]; prescribing information
  boxed warning: depression and suicidality in patients with HD: increases the risk of depression and suicidal thoughts and behavior (suicidality)
[4]; 50 mg single dose, fasted
  Maximum Placebo-Adjusted Change from Baseline in QTcF: 7.6 ms
[4]; in vivo
  time point at which the maximal ΔΔQTcF was observed: 3 h

## COc1c(N2C[C@@H]3CCCN[C@@H]3C2)c(F)cc2c(=O)c(C(=O)O)cn(C3CC3)c12 [Moxifloxacin, reference compound]
[4]; 400 mg, positive control
  Maximum Placebo-Adjusted Change from Baseline in QTcF: 14.0 ms
